This passage reports IC50 results from patent publication US20260234165A1, “MACROCYCLIC COMPOUNDS, PREPARATION METHOD THEREFOR, AND USE THEREOF” (GENFLEET THERAPEUTICS (SHANGHAI) INC., priority 2004, published 2026).

As a reminder, the IC50 is the midpoint of a concentration-inhibition curve.

What all share (format): cell-based, human
The test system of one assay is NCI-H441 cells. The experiment in a line: 3D cell proliferation assay (CellTiter Glo-3D), NCI-H441. Particulars: medium with 2% FBS, read-out: H441 AP IC50. The method in brief: (§1)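 Proliferation of the KRAS-mutant lines NCI-H441 and AsPC-1 is measured over 5 days of compound treatment in medium with 2% FBS. Inhibition is computed from luminescence relative to DMSO and cell-free controls, and IC50 comes from a four-parameter curve.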
(In general: ATP-based viability assays read luminescence as a measure of living cells.)

Assay [1] relates to AsPC-1 cells (KRAS G12D mutation). The experiment in a line: 3D cell proliferation assay (CellTiter Glo-3D), AsPC-1. Particulars: medium with 2% FBS, read-out: AsPC-1 AP IC50. An outline of the steps:
as §1

For assay [2], the system named is p-ERK in AsPC-1 cells (KRAS G12D mutation). The experiment in a line: Cell p-ERK assay (HTRF) in AsPC-1 cells. Particulars: AsPC-1 cells, 3 h compound incubation, HTRF p-ERK T202/Y204, read-out: AsPC-1 p-ERK IC50. An outline of the steps: (§2)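 In this cellular format, endogenous KRAS-mutant lines grown in RPMI-1640 plus 10% FBS received graded compound concentrations for 3 h at 37 °C. Lysates were incubated 4 h with the phospho-T202/Y204 ERK HTRF antibody pair, and percent inhibition relative to DMSO and blank wells was curve-fitted to give IC50.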

For assay [3], the system named is p-ERK in NCI-H441 cells (KRAS G12V mutation). Put plainly: Cell p-ERK assay (HTRF) in NCI-H441 cells. Particulars: NCI-H441 cells, 3 h compound incubation, HTRF p-ERK T202/Y204, read-out: H441 p-ERK IC50. An outline of the steps:
as §2
For orientation: In TR-FRET formats the signal depends on donor and acceptor labels being close together.

[4] abbreviates: 3D cell proliferation (CellTiter Glo-3D).
Setting [5] is: Homo sapiens, NCI-H441, 3D cell proliferation (CellTiter Glo-3D).
The mark [6] stands for this setting: Homo sapiens, ASPC1, 3D cell proliferation (CellTiter Glo-3D).

Each structure is given as a SMILES string. Where a name gives a salt, the structure may show the parent alone. Read-outs that look alike come from different tables or passages of the source.

`CCn1c(-c2cc(C#CCN3CCC3)cnc2[C@H](C)OC)c2c3cc(ccc31)-c1csc(n1)C[C@H](NC(=O)[C@H]1[C@H](C)[C@@H]1C)C(=O)N1CCC[C@H](N1)C(=O)OCC(C)(C)C2` (atropisomer, axis not shown; (Sa)) [Compound Z555, (1r,2R,3S)—N-((6^3S,4S,Z)—(Sa)-1^2-(5-(3-(azetidin-1-yl)prop-1-yn-1-yl)-2-((S)-1-methoxyethyl)pyridin-3-yl)-1^1-ethyl-10,10-dimethyl-5,7-dioxo-6^1,6^2,6^3,6^4,6^5,6^6-hexahydro-1^1H-8-oxa-2(4,2)-thiazola-1(5,3)-indola-6(1,3)-pyridazinacycloundecaphane-4-yl)-2,3-dimethylcyclopropane-1-carboxamide]: the IC50 was found to be 18400 pM with NCI-H441 cells (setting [4]), 30400 pM in assay [1] (setting [4]), 13400 pM in assay [2] and 11200 pM in assay [3].
Taken in the same sequence, the figures for `CCn1c(-c2cc(OCC(C)(C)N3CCS(=O)(=O)CC3)cnc2[C@H](C)OC)c2c3cc(ccc31)-c1csc(n1)C[C@H](NC(=O)[C@H]1[C@H](C)[C@@H]1C)C(=O)N1CCC[C@H](N1)C(=O)OCC(C)(C)C2` (atropisomer, axis not shown; (Ra)) [Compound Z667, (1r,2R,3S)—N-((6^1S,4S,Z)—(Ra)-1^2-(5-(2-(1,1-dioxidothiomorpholino)-2-methylpropoxy)-2-((S)-1-methoxyethyl)pyridin-3-yl)-1^1-ethyl-10,10-dimethyl-5,7-dioxo-6^1,6^2,6^3,6^4,6^5,6^6-hexahydro-1^1H-8-oxa-2(4,2)-thiazola-1(5,3)-indola-6(1,3)-pyridazinacycloundecaphane-4-yl)-2,3-dimethylcyclopropane-1-carboxamide] were 710 pM, 1630 pM, 630 pM and 380 pM.
On to `CCn1c(-c2cc(N3CCN(C)CC3)cnc2[C@H](C)OC)c2c3cc(ccc31)-c1csc(n1)C[C@H](Nc1nnc3ccccn13)C(=O)N1CCC[C@H](N1)C(=O)OCC(C)(C)C2` (atropisomer, axis not shown; (Ra)) [Compound Z460, (6^3S,4S,Z)-4-([1,2,4]triazolo[4,3-a]pyridin-3-ylamino)-1^1-ethyl-(Ra)-1^2-(2-((S)-1-methoxyethyl)-5-(4-methylpiperazin-1-yl)pyridin-3-yl)-10-O-dimethyl-6^1,6^2,6^3,6^4,6^5,6^6-hexahydro-1^1H-8-oxa-2(4,2)-thiazola-1(5,3)-indola-6(1,3)-pyridazinacycloundecaphane-5,7-dione], for which the IC50 amounted to 14300 pM in the assay with NCI-H441 cells (setting [5]); 73400 pM in assay [1] (setting [6]); 26200 pM in assay [2] (Homo sapiens, ASPC1, 3 h); 6300 pM in assay [3] (Homo sapiens, NCI-H441, 3 h).
The matching figures for `CCn1c(-c2cc(OCC3(N4CCS(=O)(=O)CC4)CC3)cnc2[C@H](C)OC)c2c3cc(ccc31)-c1csc(n1)C[C@H](NC(=O)[C@H]1[C@H](C)[C@@H]1C)C(=O)N1CCC[C@H](N1)C(=O)OCC(C)(C)C2` (atropisomer, axis not shown; (Ra)) [Compound Z614, (1r,2R,3S)—N-((6^3S,4S,Z)-1^2-(5-((1-(1,1-dioxidothiomorpholino)cyclopropyl)methoxy)-2-((S)-1-methoxyethyl)pyridin-3-yl)-1^1-ethyl-(Ra)-10,10-dimethyl-5,7-dioxo-6^1,6^2,6^3,6^4,6^5,6^6-hexahydro-1^1hydrogen-8-oxa-2(4,2)-thiazola-1(5,3)-indola-6(1,3)-pyridazinacycloundecaphane-4-yl)-2,3-dimethylcyclopropane-1-carboxamide]: 150 pM, 110 pM, 90 pM and 230 pM.
On to `CCn1c(-c2cc(C#CC3(N4CCC4)CC3)cnc2[C@H](C)OC)c2c3cc(ccc31)-c1csc(n1)C[C@H](NC(=O)[C@H]1[C@H](C)[C@@H]1C)C(=O)N1CCC[C@H](N1)C(=O)OCC(C)(C)C2` (atropisomer, axis not shown; (Ra)) [Compound Z836-1, (1r,2R,3S)—N-((4S,Z)—(Ra)-1^2-(5-((1-(azetidin-1-yl)cyclopropyl)ethynyl)-2-((S)-1-methoxyethyl)pyridin-3-yl)-1^1-ethyl-10,10-dimethyl-5,7-dioxo-6^1,6^2,6^3,6^4,6^5,6^6-hexahydro-1^1H-8-oxa-2(4,2)-thiazola-1(5,3)-indola-6(1,3)-pyridazinacycloundecaphane-4-yl)-2,3-dimethylcyclopropane-1-carboxamide], for which the 50% inhibitory concentration (IC50) in the assay on NCI-H441 cells (setting [4]) is 640 pM; in assay [1] (setting [4]) it was 1050 pM; in assay [2] it was 500 pM; in assay [3] it was 830 pM.
As for `CCn1c(-c2cc(C#CCN3CCC3)cnc2[C@H](C)OC)c2c3cc(ccc31)-c1csc(n1)C[C@H](NC(=O)[C@H]1[C@@H]3COC[C@@H]31)C(=O)N1CCC[C@H](N1)C(=O)OCC(C)(C)C2` (atropisomer, axis not shown; (Ra)) [Compound Z1031, (1R,5S,6r)-N-((6^3S,4S,Z)-1^2-(5-(3-(azetidin-1-yl)prop-1-yn-1-yl)-(Ra)-2-((S)-1-methoxyethyl)pyridin-3-yl)-1^1-ethyl-10,10-dimethyl-5,7-dioxo-6^1,6^2,6^3,6^4,6^5,6^6-hexahydro-1^1H-8-oxa-2(4,2)-thiazola-1(5,3)-indola-6(1,3)-pyridazinacycloundecaphane-4-yl)-3-oxabicyclo[3,1,0]hexane-6-carboxamide], the half-inhibitory concentration (IC50) stood at 910 pM with NCI-H441 cells (setting [5]); 1470 pM in assay [1] (setting [6]); 740 pM in assay [2] (Homo sapiens, ASPC1, 3 h); 670 pM in assay [3] (Homo sapiens, NCI-H441, 3 h).
Taken in the same sequence, the figures for `CCn1c(-c2cc(C#CCN3CCOC4(CC4)C3)cnc2[C@H](C)OC)c2c3cc(ccc31)-c1csc(n1)C[C@H](NC(=O)[C@H]1[C@H](C)[C@@H]1C)C(=O)N1CCC[C@H](N1)C(=O)OCC(C)(C)C2` [Compound Z369-1, (1r,2R,3S)—N-((6^3S,4S,Z)-1^2-(5-(3-(4-oxa-7-azaspiro[2.5]octan-7-yl)prop-1-yn-1-yl)-2-((S)-1-methoxyethyl)pyridin-3-yl)-1^1-ethyl-10,10-dimethyl-5,7-dioxo-6^1,6^2,6^3,6^4,6^5,6^6-hexahydro-1^1H-8-oxa-2(4,2)-thiazola-1(5,3)-indola-6(1,3)-pyridazinacycloundecaphane-4-yl)-2,3-dimethylcyclopropane-1-carboxamide formate] were 210 pM, 140 pM, 120 pM and 160 pM.
The matching figures for `CCn1c(-c2cc(C#CCN3CCCOCC3)cnc2[C@H](C)OC)c2c3cc(ccc31)-c1csc(n1)C[C@H](NC(=O)CC1CC1(F)F)C(=O)N1CCC[C@H](N1)C(=O)OCC(C)(C)C2` (atropisomer, axis not shown; (Ra)) [Compound Z932]: 1680 pM, 4140 pM, 2140 pM and 1220 pM.
